Source: patent publication US9295673B2, “Combination of mTOR inhibitors and P13-kinase inhibitors, and uses thereof” (Intellikine LLC, priority 2011, dated 2016)
Read-outs that look alike come from different tables or passages of the source.

Experiments:
[1] = molecular target: PI3K β (Homo sapiens, UniProt P42338); assay: PI 3-Kinase (human) HTRF assay, PI3K β
[2] = molecular target: PI3K γ (Homo sapiens, UniProt P48736); assay: PI 3-Kinase (human) HTRF assay, PI3K γ
Protocol: (§1) An exemplary system is PI 3-Kinase (human) HTRF™ Assay from Upstate. […] Briefly, the assay is a time resolved FRET assay that indirectly measures PIP3 product formed by the activity of a PI3-K. The kinase reaction is performed in a microtitre plate (e.g., a 384 well microtitre plate). The total reaction volume is approximately 20 ul per well. In the first step, each well receives 2 ul of test compound in 20% dimethylsulphoxide resulting in a 2% DMSO final concentration. […] The plate is sealed and incubated for 15 minutes at room temperature. […] The plate is sealed and incubated for 1 hour at room temperature. The reaction is stopped by adding 5 ul of Stop Solution per well and then 5 ul of Detection Mix is added per well. The plate is sealed, incubated for 1 hour at room temperature, and then read on an appropriate plate reader. Data is analyzed and IC50s are generated using GraphPad Prism 5.

[3] = molecular target: PI3K α (Homo sapiens, UniProt P42336); assay: PI 3-Kinase (human) HTRF assay, PI3K α
PI3K α, sequence (P42336 whole entry): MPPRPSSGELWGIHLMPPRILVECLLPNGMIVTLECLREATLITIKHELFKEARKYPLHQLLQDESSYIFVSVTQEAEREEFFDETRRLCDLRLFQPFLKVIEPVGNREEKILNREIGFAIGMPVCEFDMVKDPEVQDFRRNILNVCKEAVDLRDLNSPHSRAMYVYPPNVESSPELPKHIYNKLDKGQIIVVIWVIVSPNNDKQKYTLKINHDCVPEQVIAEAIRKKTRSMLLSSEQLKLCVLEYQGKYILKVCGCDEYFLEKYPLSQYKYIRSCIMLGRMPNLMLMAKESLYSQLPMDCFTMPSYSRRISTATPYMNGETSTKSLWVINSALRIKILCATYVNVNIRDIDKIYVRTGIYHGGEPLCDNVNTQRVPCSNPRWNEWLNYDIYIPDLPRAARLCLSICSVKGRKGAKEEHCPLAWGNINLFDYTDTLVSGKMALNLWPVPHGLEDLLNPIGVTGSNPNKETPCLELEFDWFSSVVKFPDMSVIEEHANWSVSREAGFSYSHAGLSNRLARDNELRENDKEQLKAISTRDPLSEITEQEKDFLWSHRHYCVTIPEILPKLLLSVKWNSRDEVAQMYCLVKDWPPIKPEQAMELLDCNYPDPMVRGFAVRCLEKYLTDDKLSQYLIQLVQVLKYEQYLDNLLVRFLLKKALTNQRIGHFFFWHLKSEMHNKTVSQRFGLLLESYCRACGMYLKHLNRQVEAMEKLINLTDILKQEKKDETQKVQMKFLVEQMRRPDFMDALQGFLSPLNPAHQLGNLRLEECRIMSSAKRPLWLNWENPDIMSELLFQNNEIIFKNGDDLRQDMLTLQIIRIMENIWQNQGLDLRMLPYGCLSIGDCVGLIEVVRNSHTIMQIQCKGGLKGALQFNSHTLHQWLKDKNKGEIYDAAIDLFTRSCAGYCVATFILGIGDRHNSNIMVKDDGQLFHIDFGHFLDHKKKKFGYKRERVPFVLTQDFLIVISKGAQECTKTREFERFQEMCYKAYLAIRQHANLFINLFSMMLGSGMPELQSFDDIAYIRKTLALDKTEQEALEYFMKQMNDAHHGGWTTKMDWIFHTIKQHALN
PI3K α, sequence (P27986 whole entry partner): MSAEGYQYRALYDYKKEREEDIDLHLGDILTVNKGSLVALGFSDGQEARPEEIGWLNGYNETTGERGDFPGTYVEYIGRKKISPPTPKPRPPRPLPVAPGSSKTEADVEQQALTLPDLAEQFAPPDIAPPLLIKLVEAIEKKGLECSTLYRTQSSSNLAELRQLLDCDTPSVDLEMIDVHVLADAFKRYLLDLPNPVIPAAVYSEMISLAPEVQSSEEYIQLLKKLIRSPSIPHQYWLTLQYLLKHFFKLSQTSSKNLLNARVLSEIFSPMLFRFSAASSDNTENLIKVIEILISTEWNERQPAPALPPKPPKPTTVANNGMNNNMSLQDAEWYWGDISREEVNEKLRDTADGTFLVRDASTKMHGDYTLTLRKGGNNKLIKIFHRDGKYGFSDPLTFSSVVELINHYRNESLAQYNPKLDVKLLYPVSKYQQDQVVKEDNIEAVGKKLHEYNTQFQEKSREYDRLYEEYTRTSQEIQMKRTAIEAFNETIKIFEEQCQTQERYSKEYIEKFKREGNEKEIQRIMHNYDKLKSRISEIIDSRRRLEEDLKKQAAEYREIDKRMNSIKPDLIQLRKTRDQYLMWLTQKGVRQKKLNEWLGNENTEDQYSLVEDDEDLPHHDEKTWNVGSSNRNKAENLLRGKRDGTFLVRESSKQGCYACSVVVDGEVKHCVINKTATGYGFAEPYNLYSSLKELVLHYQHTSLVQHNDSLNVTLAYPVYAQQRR

[4] = molecular target: PI3K δ (Homo sapiens, UniProt O00329); assay: PI 3-Kinase (human) HTRF assay, PI3K δ
Protocol: as §1

[5] = molecular target: T1, mTOR (Homo sapiens, UniProt P42345); assay: mTOR kinase inhibition assay (radiometric or LanthaScreen TR-FRET); format: biochemical; conditions: read-out: mTORC IC50
T1 construct: purchased Invitrogen
T1 sequence (P42345 1360-2549 limits assumed): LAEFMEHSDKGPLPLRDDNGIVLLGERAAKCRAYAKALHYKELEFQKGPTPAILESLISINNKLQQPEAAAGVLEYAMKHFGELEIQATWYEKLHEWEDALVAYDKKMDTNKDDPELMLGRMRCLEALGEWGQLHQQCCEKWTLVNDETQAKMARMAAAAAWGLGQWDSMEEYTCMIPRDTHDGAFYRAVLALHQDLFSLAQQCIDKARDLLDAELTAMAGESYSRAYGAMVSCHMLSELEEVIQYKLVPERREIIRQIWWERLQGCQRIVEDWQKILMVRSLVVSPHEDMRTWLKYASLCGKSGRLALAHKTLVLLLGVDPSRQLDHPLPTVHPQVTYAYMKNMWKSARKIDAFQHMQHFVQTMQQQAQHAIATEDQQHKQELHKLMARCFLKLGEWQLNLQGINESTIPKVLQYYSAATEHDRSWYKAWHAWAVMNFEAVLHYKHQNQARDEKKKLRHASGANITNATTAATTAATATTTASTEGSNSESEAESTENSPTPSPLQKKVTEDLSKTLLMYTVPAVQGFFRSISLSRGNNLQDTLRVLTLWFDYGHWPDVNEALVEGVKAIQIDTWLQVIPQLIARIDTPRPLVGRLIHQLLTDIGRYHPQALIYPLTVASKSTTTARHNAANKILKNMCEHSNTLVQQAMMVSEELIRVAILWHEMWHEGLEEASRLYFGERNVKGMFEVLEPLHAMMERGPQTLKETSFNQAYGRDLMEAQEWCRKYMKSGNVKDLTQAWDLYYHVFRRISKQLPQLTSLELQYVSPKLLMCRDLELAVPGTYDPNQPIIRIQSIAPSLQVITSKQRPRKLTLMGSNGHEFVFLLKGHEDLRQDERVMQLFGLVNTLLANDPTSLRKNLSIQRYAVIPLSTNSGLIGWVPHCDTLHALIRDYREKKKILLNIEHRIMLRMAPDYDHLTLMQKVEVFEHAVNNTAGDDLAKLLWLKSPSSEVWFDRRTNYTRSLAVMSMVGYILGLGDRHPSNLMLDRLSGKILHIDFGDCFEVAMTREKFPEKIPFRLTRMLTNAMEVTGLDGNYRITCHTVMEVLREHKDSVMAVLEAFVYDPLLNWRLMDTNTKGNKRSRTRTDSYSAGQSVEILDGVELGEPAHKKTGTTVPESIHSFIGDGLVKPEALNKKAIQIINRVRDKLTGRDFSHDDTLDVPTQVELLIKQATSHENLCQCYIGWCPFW

[6] = read-out: PI3K β IC50, in vitro
[7] = read-out: PI3K γ IC50, in vitro
[8] = read-out: PI3K α IC50, in vitro
[9] = read-out: PI3K δ IC50, in vitro

PI3K β, sequence (P42338 whole entry): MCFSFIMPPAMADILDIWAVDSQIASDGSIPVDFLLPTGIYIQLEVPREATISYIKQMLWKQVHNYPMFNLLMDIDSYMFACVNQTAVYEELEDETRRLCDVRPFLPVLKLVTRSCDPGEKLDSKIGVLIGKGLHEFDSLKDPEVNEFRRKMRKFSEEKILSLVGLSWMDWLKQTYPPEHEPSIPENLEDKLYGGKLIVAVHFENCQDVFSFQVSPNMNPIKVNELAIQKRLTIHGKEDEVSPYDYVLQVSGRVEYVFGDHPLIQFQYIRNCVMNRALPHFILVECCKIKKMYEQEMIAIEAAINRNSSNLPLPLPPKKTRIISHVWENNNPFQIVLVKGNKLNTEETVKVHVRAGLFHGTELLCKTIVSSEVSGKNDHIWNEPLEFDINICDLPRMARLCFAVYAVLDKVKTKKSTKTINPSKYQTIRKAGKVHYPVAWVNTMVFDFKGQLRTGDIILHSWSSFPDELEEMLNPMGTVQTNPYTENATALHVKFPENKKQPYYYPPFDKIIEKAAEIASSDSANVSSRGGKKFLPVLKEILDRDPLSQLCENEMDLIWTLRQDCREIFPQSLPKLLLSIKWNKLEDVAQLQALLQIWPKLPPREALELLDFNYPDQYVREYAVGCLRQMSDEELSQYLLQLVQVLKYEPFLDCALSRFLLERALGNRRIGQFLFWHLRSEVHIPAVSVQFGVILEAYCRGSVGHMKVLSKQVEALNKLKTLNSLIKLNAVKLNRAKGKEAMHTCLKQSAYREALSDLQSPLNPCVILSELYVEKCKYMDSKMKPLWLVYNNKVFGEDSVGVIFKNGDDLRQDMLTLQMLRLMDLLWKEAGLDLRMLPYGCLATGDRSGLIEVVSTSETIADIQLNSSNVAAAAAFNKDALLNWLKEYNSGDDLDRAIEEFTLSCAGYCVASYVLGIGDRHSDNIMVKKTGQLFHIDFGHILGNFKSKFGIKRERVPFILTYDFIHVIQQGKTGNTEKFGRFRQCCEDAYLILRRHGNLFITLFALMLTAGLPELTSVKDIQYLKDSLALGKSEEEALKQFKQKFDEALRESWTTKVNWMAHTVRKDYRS
PI3K β, sequence (P27986 whole entry partner): as the sequence (P27986 whole entry partner) above

Question: For `Nc1nsc2cc(-c3ccc4nccc(-c5ccncc5)c4c3)ccc12` [Compound 13], which IC50 [1] is on record?
Answer: < 1000 nM

Question: And the IC50 [2]?
Answer: < 1000 nM

Question: What about the IC50 [3] of the same compound?
Answer: < 100 nM

Question: What about the IC50 [4] of the same compound?
Answer: < 1000 nM

Question: Which results are given for `COC(=O)Nc1noc2ccc(-c3nn(C(C)C)c4ncnc(N)c34)cc12` [Compound 20]?
Answer: IC50 [3]: < 10000 nM; IC50 [4]: < 10000 nM

Question: For `CCOC(=O)Cn1nc(-c2cc3cc(O)ccc3[nH]2)c2c(N)ncnc21` [Compound 28], which IC50 ([1]; read-out: PI3K β IC50, Table 2) is on record?
Answer: > 500 nM

Question: And the IC50 ([5]; Table 2)?
Answer: < 500 nM

Question: What about the IC50 ([3]; read-out: PI3K α IC50) of the same compound?
Answer: > 500 nM

Question: What about the IC50 ([4]; read-out: PI3K δ IC50) of the same compound?
Answer: > 500 nM

Question: With `COc1cc2cc(-c3nn(C(C)C)c4ncnc(N)c34)[nH]c2cc1Cl` [Compound 29] as the compound, how does the IC50 ([5]; Table 2) read?
Answer: > 500 nM

Question: With `CC(=O)N1CCC(n2nc(-c3cc4cc(O)ccc4[nH]3)c3c(N)ncnc32)CC1` [Compound 30] as the compound, how does the IC50 ([1]; read-out: PI3K β IC50, Table 2) read?
Answer: > 500 nM

Question: And the IC50 ([5]; Table 2)?
Answer: < 25 nM

Question: And the IC50 ([3]; read-out: PI3K α IC50)?
Answer: > 500 nM

Question: What about the IC50 ([4]; read-out: PI3K δ IC50, Table 2) of the same compound?
Answer: > 500 nM

Question: For `Nc1ncnc2c1c(-c1cc3cc(O)ccc3[nH]1)nn2C1CCN(C(=O)C2CC2)CC1` [Compound 31], which IC50 ([1]; read-out: PI3K β IC50, Table 2) is on record?
Answer: > 500 nM

Question: What about the IC50 ([5]; Table 2) of the same compound?
Answer: < 25 nM

Question: And the IC50 ([3]; read-out: PI3K α IC50)?
Answer: > 500 nM

Question: And the IC50 ([4]; read-out: PI3K δ IC50, Table 2)?
Answer: 100 to 500 nM

Question: For `Nc1ncnc2c1c(-c1cc3cc(O)ccc3[nH]1)nn2C1CCOCC1` [Compound 42], which IC50 ([1]; read-out: PI3K β IC50, Table 2) is on record?
Answer: > 500 nM

Question: And the IC50 ([5]; Table 2)?
Answer: < 5 nM

Question: And the IC50 ([3]; read-out: PI3K α IC50)?
Answer: > 500 nM

Question: And the IC50 ([4]; read-out: PI3K δ IC50)?
Answer: 50 to 100 nM

Question: For `CNC(=O)CCn1nc(-c2cc3cc(O)ccc3[nH]2)c2c(N)ncnc21` [Compound 43], which IC50 ([1]; read-out: PI3K β IC50, Table 2) is on record?
Answer: > 500 nM

Question: And the IC50 ([5]; Table 2)?
Answer: > 500 nM

Question: What about the IC50 ([3]; read-out: PI3K α IC50) of the same compound?
Answer: > 500 nM

Question: What about the IC50 ([4]; read-out: PI3K δ IC50, Table 2) of the same compound?
Answer: > 500 nM

Question: Which results are given for `Cc1nccn1CCn1nc(-c2cc3cc(O)ccc3[nH]2)c2c(N)ncnc21` [Compound 44]?
Answer: IC50 ([1]; read-out: PI3K β IC50, Table 2): > 500 nM; IC50 ([5]; Table 2): < 100 nM; IC50 ([3]; read-out: PI3K α IC50, Table 2): > 500 nM; IC50 ([4]; read-out: PI3K δ IC50): > 500 nM

Question: `CC(C)n1nc(-c2cc3cc(O)ccc3[nH]2)c2c(N)nccc21` [Compound 45] was tested. Which IC50 ([5]; Table 2) did it give?
Answer: > 500 nM

Question: For `Nc1nc2cc(-c3ccc4ncc(C(=O)N5CCOCC5)n4c3)ccc2o1` [Compound 54], which IC50 ([3]; read-out: PI3K α IC50) is on record?
Answer: < 100 nM

Question: How did the IC50 ([1]; read-out: PI3K β IC50) turn out when `Nc1nc2cc(-c3ccc4ncc(NC5CCC(O)CC5)nc4c3)ccc2o1` (stereo not drawn) [Compound 128] was run?
Answer: < 10000 nM

Question: What about the IC50 ([2]; read-out: PI3K γ IC50) of the same compound?
Answer: < 100 nM

Question: What about the IC50 ([3]; read-out: PI3K α IC50) of the same compound?
Answer: < 100 nM

Question: And the IC50 ([4]; read-out: PI3K δ IC50)?
Answer: < 100 nM

Question: `CC(=O)Nc1nc2ccc(-c3nc(N4CCOCC4)c4sc(CN5CCN(S(C)(=O)=O)CC5)cc4n3)cc2s1` [Compound 130] was tested. Which IC50 ([1]; read-out: PI3K β IC50) did it give?
Answer: > 10000 nM

Question: What about the IC50 ([2]; read-out: PI3K γ IC50) of the same compound?
Answer: > 10000 nM

Question: And the IC50 ([3]; read-out: PI3K α IC50)?
Answer: > 10000 nM

Question: What about the IC50 ([4]; read-out: PI3K δ IC50) of the same compound?
Answer: > 10000 nM

Question: Which results are given for `CCN1CCN(C(=O)c2cnc3ncc(-c4ccc5oc(N)nc5c4)cn23)CC1` [Compound 141]?
Answer: IC50 [1]: > 10000 nM; IC50 [2]: < 10000 nM; IC50 [3]: < 1000 nM; IC50 [4]: > 10000 nM

Question: With `Nc1nc2cc(-c3ccc4ncc(C(=O)NC5CCC(O)CC5)n4c3)ccc2o1` (stereo not drawn) [Compound 143] as the compound, how does the IC50 ([1]; read-out: PI3K β IC50) read?
Answer: < 10000 nM

Question: What about the IC50 [5] of the same compound?
Answer: > 10000 nM

Question: What about the IC50 ([2]; read-out: PI3K γ IC50) of the same compound?
Answer: < 100 nM

Question: What does the source list for `Nc1nc2cc(-c3ccc4ncc(C(=O)N5CCN(CC6CC6)CC5)n4c3)ccc2o1` [Compound 161]?
Answer: IC50 ([1]; read-out: PI3K β IC50): < 10000 nM; IC50 ([2]; read-out: PI3K γ IC50): < 10000 nM; IC50 ([3]; read-out: PI3K α IC50): < 1000 nM; IC50 ([4]; read-out: PI3K δ IC50): < 10000 nM

Question: What does the source list for `CC(C)[C@H](N)C(=O)N1CCN(c2cnc3ccc(-c4ccc5oc(N)nc5c4)cc3n2)CC1` [Compound 269]?
Answer: IC50 ([1]; read-out: PI3K β IC50): < 1000 nM; IC50 ([3]; read-out: PI3K α IC50): < 100 nM; IC50 ([4]; read-out: PI3K δ IC50): < 1000 nM

Question: `Cc1ccc(NC(=O)c2cnc3ccc(-c4ccc5oc(N)nc5c4)cn23)cn1` [Compound 294] was tested. Which IC50 ([1]; read-out: PI3K β IC50) did it give?
Answer: > 10000 nM

Question: And the IC50 ([2]; read-out: PI3K γ IC50)?
Answer: < 100 nM

Question: And the IC50 ([3]; read-out: PI3K α IC50)?
Answer: < 100 nM

Question: And the IC50 ([4]; read-out: PI3K δ IC50)?
Answer: < 10000 nM

Question: How did the IC50 ([1]; read-out: PI3K β IC50) turn out when `CN1CCN(CCNC(=O)c2cnc3ccc(-c4ccc5oc(N)nc5c4)cn23)CC1` [Compound 306] was run?
Answer: < 1000 nM

Question: And the IC50 ([3]; read-out: PI3K α IC50)?
Answer: < 100 nM

Question: And the IC50 ([4]; read-out: PI3K δ IC50)?
Answer: < 1000 nM

Question: For `C[C@H]1CN(c2cnc3ccc(-c4ccc5oc(N)nc5c4)cc3n2)CCN1C` [Compound 332], which IC50 ([1]; read-out: PI3K β IC50) is on record?
Answer: < 100 nM

Question: And the IC50 ([3]; read-out: PI3K α IC50)?
Answer: < 1000 nM

Question: And the IC50 ([4]; read-out: PI3K δ IC50)?
Answer: < 10000 nM

Question: Which IC50 [1] does the source give for `C[C@H]1CN(c2cnc3scc(-c4ccc5oc(N)nc5c4)c3n2)CCN1` [Compound 399] here?
Answer: > 10000 nM

Question: And the IC50 [2]?
Answer: > 10000 nM

Question: And the IC50 [3]?
Answer: > 10000 nM

Question: What about the IC50 [4] of the same compound?
Answer: > 10000 nM

Question: `Nc1cc(-c2ccc3ncc(C(=O)N4CCOCC4)n3c2)cnc1Cl` [Compound 415] was tested. Which IC50 [1, 6] did it give?
Answer: > 10000 nM

Question: And the IC50 [2, 7]?
Answer: > 10000 nM

Question: What about the IC50 [3, 8] of the same compound?
Answer: < 10000 nM

Question: And the IC50 [4, 9]?
Answer: > 10000 nM

Question: Which IC50 [1, 6] does the source give for `COc1ccc(CNc2n[nH]c3cc(-c4ccc5oc(N)nc5c4)ccc23)cc1` [Compound 429] here?
Answer: > 10000 nM

Question: What about the IC50 [2, 7] of the same compound?
Answer: > 10000 nM

Question: And the IC50 [3, 8]?
Answer: > 10000 nM

Question: And the IC50 [4, 9]?
Answer: > 10000 nM

Question: `CNS(=O)(=O)c1cc(-c2ccc3ncc(C(=O)N4CCOCC4)n3c2)ccc1OC` [Compound 445] was tested. Which IC50 [1, 6] did it give?
Answer: > 10000 nM

Question: And the IC50 [2, 7]?
Answer: > 10000 nM

Question: And the IC50 [3, 8]?
Answer: > 10000 nM

Question: And the IC50 [4, 9]?
Answer: > 10000 nM

Question: Which IC50 [1, 6] does the source give for `O=C(c1cnc2ccc(-c3ccc(Cl)c(NS(=O)(=O)c4ccc(F)cc4F)c3)cn12)N1CCOCC1` [Compound 461] here?
Answer: < 10000 nM

Question: And the IC50 [3, 8]?
Answer: < 1000 nM

Question: What about the IC50 [4, 9] of the same compound?
Answer: < 10000 nM

Question: Which IC50 [1, 6] does the source give for `[2H]C1([2H])OC([2H])([2H])C([2H])([2H])N(C(=O)c2cnc3ccc(-c4ccc5oc(N)nc5c4)cn23)C1([2H])[2H]` [Compound 529] here?
Answer: > 10000 nM

Question: And the IC50 [3, 8]?
Answer: < 1000 nM

Question: What about the IC50 [4, 9] of the same compound?
Answer: > 10000 nM
